The source of these data is ChEMBL document CHEMBL1909606, “Polarization in the structures of uracil and thiouracils: Implication for binding with orotidine 5'-monophosphate decarboxylase” (Bioorg Med Chem Lett, 2011).

A short description of the assay: Binding affinity to orotidine-5'-monophosphate decarboxylase relative to uracil.

On to `Oc1nccc(S)n1`, for which the relative binding affinity (RBA) was 61.

For the compound `O=c1cc[nH]c(=S)[nH]1`, the relative binding affinity (RBA) amounted to 29.
